Laboratory results: PMC8154258, “Multivalent Presentations of Glycomimetic Inhibitor of the Adhesion of Fungal Pathogen Candida albicans to Human Buccal Epithelial Cells” (Bioconjugate Chemistry, 2021)

Tested on: C. albicans biofilm formation
Assay: Biofilm assay (crystal violet, 96-well plate)
Format: cell-based, Candida albicans
Method: C. albicans (MEN, serotype B, clinical isolate from a corneal infection) was maintained on sabouraud dextrose agar, and cultures were grow to the stationary phase ((1–2) × 10^8 cells/mL) overnight in YEPD broth (1% (w/v) yeast extract, 2% (w/v) bacteriological peptone, 2% (w/v) glucose) at 30 °C, and 200 rpm. Stationary phase yeast cells were harvested, washed with PBS, and resuspended at a density of 1 × 10^8 cells/mL in PBS.
C. albicans cells were washed twice with PBS and enumerated before being resuspended in RPMI to give a cell density of (2 × 10^7 cells/mL). Compounds were resuspended in PBS to give a concentration of 2 mg/mL. The compounds (250 μL) were mixed with RPMI (250 μL) in a 1:1 ratio to give a concentration of 1 mg/mL. PBS (250 μL) was mixed with RPMI (250 μL).
C. albicans cells (500 μL, 2 × 10^7 cells/mL) were incubated with compounds (1 mg/mL) in a 1:1 ratio to give a final cell density to concentration ratio of […]. The suspension was incubated for 3 h at rt and mixed by vortex every 20 min to prevent cells from falling out of solution. Cell suspension (100 μL) was added to wells of a 96-well flat bottom plate. The plate was incubated at 37 °C for 24 h. […] The plate was read at 550 nm in a 96-well plate reader. The percentage reduction in biofilm was calculated by dividing the absorbance value of the treated cells into that of the control.

## O=C[C@H](O)[C@@H](O)[C@@H](O)[C@H](O)CO [D-galactose]
Figure 4, relative to PBS control, compound 1 mg/mL mixed 1:1 with cells, 24 h at 37 °C, crystal violet, 550 nm, error: standard deviation
  % Change in biofilm formation: 114%
Biofilm growing conditions, positive control
  effect on biofilm formation (in words): promoted the formation of the biofilm
